# Data published in patent publication US20110201665A1, “Compositions, Methods, and Kits for Treating Influenza Viral Infections” (priority 2009, published 2011).
# Legend:
# [1] = tested on: Influenza A/NWS/33 (H1N1); set-up: species or system C57/BL6 mice; conditions: mouse, in vivo; for survival on day 8: po
# [2] = in vivo, po; cited from earlier work
# [3] = set-up: dose or concentration left out as unconfirmed; conditions: Phase I, single or multiple oral doses; cited from earlier work
# [4] = tested on: influenza A or B viruses; conditions: human, in vivo, po; cited from earlier work
smiles,measurement,setting,value
"CC(C)C(=O)c1c(C(C)C)nn2ccccc12 [ibudilast, 1-(2-isopropyl-pyrazolo[1,5-a]pyridine-3-yl)-2-methylpropan-1-one]",survival on day 8,[1],0%
"CCOC(=O)C1=C[C@@H](OC(CC)CC)[C@H](NC(C)=O)[C@@H](N)C1 [oseltamivir, (3R,4R,5S)-4-acetylamino-5-amino-3(1-ethylpropoxy)-1-cyclohexene-1-carboxylic acid, ethyl ester]",survival rate,[1],40%
same,half-life,[2],6 to 10 h
"CCC(CC)[C@H](NC(C)=O)[C@@H]1[C@H](O)[C@@H](C(=O)O)C[C@H]1NC(=N)N [peramivir, (1S,2S,3S,4R)-3-[(1S)-1-Acetamido-2-ethyl-butyl]-4-(diaminomethylideneamino)-2-hydroxy-cyclopentane-1-carboxylic acid]",tolerability,[3],well-tolerated
same,adverse effects,[4],no adverse effects
"O=C(Nc1c(Cl)cncc1Cl)c1ccc(OC(F)F)c(OCC2CC2)c1 [roflumilast, 3-(cyclopropylmethoxy)-N-(3,5-dichloropyridin-4-yl)-4-(difluoromethoxy)benzamide]",survival on day 8,[1],0%
"COc1ccc(C2CNC(=O)C2)cc1OC1CCCC1 (stereo not shown) [rolipram, 4-[3-(cyclopentyloxy)-4-methoxyphenyl]-2-pyrrolidone]",survival on day 8,[1],0%
